Literature values in US6063383A, “Pharmaceutical suppository composites for fever and influenza and method of producing the composites” (priority 1999, dated 2000).

System: small rats
Details: rat, in vivo

Structure (SMILES): NCCS(=O)(=O)O [taurine]
- spontaneous and pedaling activities: can reduce the combined action of spontaneous activities and pedaling activities
